{"source": "ChEMBL document CHEMBL5214939", "about": "“Design, synthesis and biological evaluations of novel farnesoid X receptor (FXR) agonists” (Bioorg Med Chem Lett, 2022)", "key": {"[1]": {"target": "T1, Bile acid receptor (Homo sapiens, UniProt Q96RI1)", "T1 sequence (Q96RI1 whole entry)": "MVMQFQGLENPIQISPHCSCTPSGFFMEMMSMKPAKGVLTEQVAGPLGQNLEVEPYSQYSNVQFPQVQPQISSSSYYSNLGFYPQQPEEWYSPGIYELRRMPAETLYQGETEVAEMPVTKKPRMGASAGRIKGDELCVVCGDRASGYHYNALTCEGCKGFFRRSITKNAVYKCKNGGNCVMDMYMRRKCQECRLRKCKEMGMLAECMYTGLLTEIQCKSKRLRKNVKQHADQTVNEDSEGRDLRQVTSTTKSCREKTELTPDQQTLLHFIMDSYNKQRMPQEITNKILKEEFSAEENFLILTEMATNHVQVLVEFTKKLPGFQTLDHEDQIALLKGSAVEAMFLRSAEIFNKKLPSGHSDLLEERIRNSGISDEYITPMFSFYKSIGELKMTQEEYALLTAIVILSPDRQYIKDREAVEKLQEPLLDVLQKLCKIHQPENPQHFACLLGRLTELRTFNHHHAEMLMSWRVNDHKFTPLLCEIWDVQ", "assay": "Agonist activity at FXR in HEK293T cells assessed as transcriptional activity by measuring […] by luciferase reporter assay", "type": "cell-based"}, "[2]": {"assay": "AUC (0 to t) in mouse at 5 mg/kg, iv", "type": "ADME, organism-based", "parameters": "dose 5 mg/kg, route iv", "conditions": "in vivo"}, "[3]": {"assay": "AUCinfinity in mouse at 5 mg/kg, iv", "type": "ADME, organism-based", "parameters": "time infinity, dose 5 mg/kg, route iv", "conditions": "in vivo"}, "[4]": {"assay": "AUC (0 to t) in mouse at 20 mg/kg, po", "type": "ADME, organism-based", "parameters": "dose 20 mg/kg, route po", "conditions": "in vivo"}, "[5]": {"assay": "AUCinfinity in mouse at 20 mg/kg, po", "type": "ADME, organism-based", "parameters": "time infinity, dose 20 mg/kg, route po", "conditions": "in vivo"}, "[6]": {"assay": "Clearance in mouse at 20 mg/kg, po or 5 mg/kg, iv", "type": "ADME, organism-based", "conditions": "in vivo"}, "[7]": {"assay": "Half life in mouse at 20 mg/kg, po", "type": "ADME, organism-based", "conditions": "in vivo"}, "[8]": {"assay": "Tmax in mouse at 20 mg/kg, po", "type": "ADME, organism-based", "conditions": "in vivo"}, "[9]": {"assay": "Cmax in mouse at 20 mg/kg, po", "type": "ADME, organism-based", "parameters": "dose 20 mg/kg, route po", "conditions": "in vivo"}, "[10]": {"assay": "Oral bioavailability in mouse at 20 mg/kg", "type": "ADME, organism-based", "conditions": "in vivo"}, "[11]": {"species_on_record": "Mus musculus", "assay": "Protection against Con-A induced autoimmune hepatitis mouse model assessed as reduction in ALT level", "type": "functional, organism-based"}, "[12]": {"species_on_record": "Mus musculus", "assay": "Protection against Con-A induced autoimmune hepatitis mouse model assessed as reduction in AST level", "type": "functional, organism-based"}, "[13]": {"assay": "AUC (0 to t) in mouse at 100 mg/kg, po", "type": "ADME, organism-based", "parameters": "dose 100 mg/kg, route po", "conditions": "in vivo"}, "[14]": {"assay": "AUCinfinity in mouse at 100 mg/kg, po", "type": "ADME, organism-based", "parameters": "time infinity, dose 100 mg/kg, route po", "conditions": "in vivo"}, "[15]": {"assay": "Clearance in mouse at 100 mg/kg, po or 5 mg/kg, iv", "type": "ADME, organism-based", "conditions": "in vivo"}, "[16]": {"assay": "Half life in mouse at 100 mg/kg, po", "type": "ADME, organism-based", "conditions": "in vivo"}, "[17]": {"assay": "Tmax in mouse at 100 mg/kg, po", "type": "ADME, organism-based", "conditions": "in vivo"}, "[18]": {"assay": "Cmax in mouse at 100 mg/kg, po", "type": "ADME, organism-based", "parameters": "dose 100 mg/kg, route po", "conditions": "in vivo"}, "[19]": {"assay": "Oral bioavailability in mouse at 100 mg/kg", "type": "ADME, organism-based", "conditions": "in vivo"}}, "note": "Calls of active or inactive are those of the source. No cut-off for these calls is given here."}
{"smiles": "CC(C)c1snc(-c2c(Cl)cccc2Cl)c1COc1ccc(/C=C/c2cccc(C(=O)O)c2)c(Cl)c1", "values": [{"measurement": "EC50", "setting": "[1]", "result": 570, "unit": "nM"}]}
{"smiles": "CCN(Cc1ccc(C(=O)O)cc1)c1ccc(OCc2c(-c3c(Cl)cccc3Cl)nsc2C(C)C)nc1C(F)(F)F", "values": [{"measurement": "EC50", "setting": "[1]", "result": 2160, "unit": "nM"}]}
{"smiles": "CC(C)c1snc(-c2c(Cl)cccc2Cl)c1COc1ccc(N(C)Cc2ccc(C(=O)O)s2)c(C(F)(F)F)n1", "values": [{"measurement": "EC50", "setting": "[1]", "result": 510, "unit": "nM"}]}
{"smiles": "CN(Cc1ccc(C(=O)NO)cc1)c1ccc(OCc2c(-c3c(Cl)cccc3Cl)nsc2C2CC2)nc1C(F)(F)F", "values": [{"measurement": "EC50", "setting": "[1]", "result": "> 30000", "unit": "nM"}]}
{"smiles": "CC(C)c1snc(-c2c(Cl)cccc2Cl)c1COc1ccc(N(C)CC2CCCC(C(=O)O)C2)c(C(F)(F)F)n1", "note": "(centres undefined)", "values": [{"measurement": "EC50", "setting": "[1]", "result": "> 30000", "unit": "nM"}]}
{"smiles": "CC(C)c1onc(-c2c(Cl)cccc2Cl)c1COc1ccc(/C=C/c2cccc(C(=O)O)c2)c(Cl)c1", "values": [{"measurement": "AUC(0-t)", "setting": "[2]", "result": 3140, "unit": "ng·h/mL"}, {"measurement": "AUC", "setting": "[3]", "result": 3162, "unit": "ng·h/mL"}, {"measurement": "AUC(0-t)", "setting": "[4]", "result": 85200, "unit": "ng·h/mL"}, {"measurement": "AUC", "setting": "[5]", "result": 85283, "unit": "ng·h/mL"}, {"measurement": "CL", "setting": "[6]", "result": 1.58, "unit": "L/h/kg"}, {"measurement": "t1/2", "setting": "[7]", "result": 1.53, "unit": "h"}, {"measurement": "Tmax", "setting": "[8]", "result": 30, "unit": "min"}, {"measurement": "Cmax", "setting": "[9]", "result": 4787, "unit": "ng/mL"}, {"measurement": "F", "setting": "[10]", "result": 42.81, "unit": "%"}]}
{"smiles": "CN(Cc1ccc(C(=O)O)cc1)c1ccc(OCc2c(-c3c(Cl)cccc3Cl)nsc2C2CC2)nc1C(F)(F)F", "values": [{"measurement": "EC50", "setting": "[1]", "result": 310, "unit": "nM"}, {"measurement": "Activity", "setting": "[11]", "result": "Active"}]}
{"smiles": "CC(C)c1snc(-c2c(Cl)cccc2Cl)c1COc1ccc(N(C)Cc2ccc(C(=O)O)cc2)c(C(F)(F)F)n1", "values": [{"measurement": "EC50", "setting": "[1]", "result": 350, "unit": "nM"}, {"measurement": "Activity", "setting": "[12]", "result": "Active"}, {"measurement": "Activity", "setting": "[11]", "result": "Active"}]}
{"smiles": "CN(Cc1cccc(C(=O)NO)c1)c1ccc(OCc2c(-c3c(Cl)cccc3Cl)nsc2C2CC2)nc1C(F)(F)F", "values": [{"measurement": "EC50", "setting": "[1]", "result": 1090, "unit": "nM"}]}
{"smiles": "CN(Cc1ccc(C(=O)O)cc1)c1ccc(OCc2c(-c3c(Cl)cccc3Cl)nsc2C2CC2)cc1C(F)(F)F", "values": [{"measurement": "EC50", "setting": "[1]", "result": 410, "unit": "nM"}, {"measurement": "Activity", "setting": "[11]", "result": "Active"}]}
{"smiles": "CN(Cc1cccc(C(=O)O)c1)c1ccc(OCc2c(-c3c(Cl)cccc3Cl)nsc2C2CC2)nc1C(F)(F)F", "values": [{"measurement": "EC50", "setting": "[1]", "result": 270, "unit": "nM"}, {"measurement": "Activity", "setting": "[12]", "result": "Active"}, {"measurement": "Activity", "setting": "[11]", "result": "Active"}, {"measurement": "AUC(0-t)", "setting": "[2]", "result": 5760, "unit": "ng·h/mL"}, {"measurement": "AUC", "setting": "[3]", "result": 5822, "unit": "ng·h/mL"}, {"measurement": "AUC(0-t)", "setting": "[13]", "result": 5370, "unit": "ng·h/mL"}, {"measurement": "AUC", "setting": "[14]", "result": 5415, "unit": "ng·h/mL"}, {"measurement": "CL", "setting": "[15]", "result": 0.86, "unit": "L/h/kg"}, {"measurement": "half-life", "setting": "[16]", "result": 156, "unit": "min"}, {"measurement": "Tmax", "setting": "[17]", "result": 30, "unit": "min"}, {"measurement": "Cmax", "setting": "[18]", "result": 40200, "unit": "ng/mL"}, {"measurement": "F", "setting": "[19]", "result": 73, "unit": "%"}]}
